Drawing on PubChem BioAssay (NCI), this text covers TGI and GI50 for 13 molecules.

SMILES strings stand for the structures.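 Exposure lasted 48 hours, with cells grown in 96-well plates and compounds tested at five concentrations. GI50 marks 50% less growth. TGI denotes the concentration required for complete inhibition of growth.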

Test systems include OVCAR-3 ovarian; IGROV1 ovarian; NCI-H460 lung; OVCAR-8 ovarian; RXF 393 renal; ACHN renal; SNB-75 CNS; HS 578T breast; KM12 colon; MALME-3M melanoma.
What all share (test): DTP human tumour cell line panel, 48 h

In the case of `Cc1c(-c2nc(N)nc(C3CC3)c2C)nc(N)nc1C1CC1`, the TGI in the experiment on OVCAR-3 ovarian, in the experiment with IGROV1 ovarian, in the experiment on NCI-H460 lung, in the experiment with OVCAR-8 ovarian, with RXF 393 renal and in the experiment with ACHN renal was over 100 µM in each case. Further, the TGI in the experiment with SNB-75 CNS, with HS 578T breast, with KM12 colon and with MALME-3M melanoma was over 100 µM each time.

`FC(F)(F)c1ccc2c(Nc3cccc(C4CC(c5ccccc5)=NN4c4ccc(Cl)cc4)c3)ccnc2c1` (stereo not drawn): the GI50 in the experiment with OVCAR-3 ovarian was 2.21 µM; in the experiment on IGROV1 ovarian, 2.57 µM; in the experiment with NCI-H460 lung it was 4.08 µM; with OVCAR-8 ovarian, 3.57 µM; in the experiment with RXF 393 renal it was 4.82 µM; with ACHN renal it was 2.9 µM. The GI50 in the experiment with SNB-75 CNS was 2.67 µM; in the experiment with HS 578T breast, 4.43 µM; in the experiment with KM12 colon, 3.16 µM; in the experiment on MALME-3M melanoma it was 4.38 µM. Moreover, the TGI is 6.02 µM in the experiment with OVCAR-3 ovarian; 11 µM with IGROV1 ovarian; 17.2 µM in the experiment on NCI-H460 lung; 19.7 µM with OVCAR-8 ovarian; 20.1 µM with RXF 393 renal; 11.1 µM with ACHN renal. Moreover, the TGI in the experiment with SNB-75 CNS amounted to 20.8 µM; in the experiment on HS 578T breast, 43.2 µM; in the experiment with KM12 colon it was 16.7 µM; in the experiment on MALME-3M melanoma it was 21 µM.

Consider `CS(=O)(=O)Nc1ccc(-c2ccc3c(NC(=O)C4CC4)n[nH]c3c2)cc1`, for which the GI50 in the experiment with OVCAR-3 ovarian is over 21.2 µM; with IGROV1 ovarian, over 25 µM; in the experiment on NCI-H460 lung, over 22.5 µM; in the experiment with OVCAR-8 ovarian it was over 25 µM; in the experiment with RXF 393 renal it was over 17.7 µM; in the experiment with ACHN renal, over 25 µM. Further, the GI50 with SNB-75 CNS is over 25 µM; in the experiment on HS 578T breast, 24.4 µM; in the experiment with KM12 colon, over 16.2 µM; with MALME-3M melanoma, over 23.1 µM. Further, the TGI in the experiment with OVCAR-3 ovarian, with IGROV1 ovarian, in the experiment on NCI-H460 lung, in the experiment on OVCAR-8 ovarian, in the experiment on RXF 393 renal and with ACHN renal was over 25 µM throughout. For the same molecule, the TGI in the experiment with SNB-75 CNS, with HS 578T breast, with KM12 colon and with MALME-3M melanoma was over 25 µM in each case.

In the case of `Cc1ccc([N+](=O)[O-])c2c(NCCCN(C)C)ccnc12`, the TGI with OVCAR-3 ovarian is over 93.1 µM; in the experiment with IGROV1 ovarian, 91.8 µM; with NCI-H460 lung, 76.1 µM; in the experiment with OVCAR-8 ovarian, over 100 µM; in the experiment on RXF 393 renal, over 100 µM; in the experiment on ACHN renal it was over 100 µM. Besides, the TGI in the experiment on SNB-75 CNS is over 100 µM; in the experiment with HS 578T breast it was over 100 µM; in the experiment on KM12 colon, over 100 µM; in the experiment with MALME-3M melanoma, 44.8 µM.

Turning to `C=CC(=O)N1CCN(c2ncnc3c(F)c(-c4c(O)cccc4F)c(Cl)cc23)CC1`, the GI50 is 9.02 µM with OVCAR-3 ovarian; 11.6 µM in the experiment with IGROV1 ovarian; 14.8 µM in the experiment with NCI-H460 lung; 19.3 µM in the experiment with OVCAR-8 ovarian; 2.27 µM in the experiment with RXF 393 renal; 4.84 µM in the experiment on ACHN renal. Further, the GI50 in the experiment on SNB-75 CNS is 7.54 µM; in the experiment on HS 578T breast, 19 µM; in the experiment on KM12 colon, 11.7 µM; in the experiment with MALME-3M melanoma it was 11.5 µM. The TGI in the experiment on OVCAR-3 ovarian worked out at 23.5 µM; in the experiment on IGROV1 ovarian, 24.8 µM; in the experiment with NCI-H460 lung, 33.5 µM; in the experiment with OVCAR-8 ovarian, 67 µM; in the experiment on RXF 393 renal it was 14.7 µM; in the experiment with ACHN renal, 17.7 µM. Further, the TGI with SNB-75 CNS is 22.6 µM; in the experiment with HS 578T breast, 66.4 µM; with KM12 colon, 28 µM; with MALME-3M melanoma, 24.8 µM.

In the case of `C=C1C(=O)O[C@H]2[C@H]1CC/C(COC(=O)c1cc3cc(OC)ccc3[nH]1)=C\CC[C@@]1(C)O[C@@H]21`, the GI50 in the experiment on OVCAR-3 ovarian is 0.935 µM; in the experiment on IGROV1 ovarian, 1.48 µM; with NCI-H460 lung, 1.83 µM; in the experiment with OVCAR-8 ovarian it was 1.58 µM; with RXF 393 renal, 1.14 µM; in the experiment on ACHN renal it was 0.817 µM. In addition, the values for the GI50 with HS 578T breast, in the experiment on KM12 colon and in the experiment on MALME-3M melanoma were 3.09 µM, 1.54 µM and 1.61 µM, respectively. Besides, the TGI was 2.15 µM in the experiment on OVCAR-3 ovarian; 3.17 µM with IGROV1 ovarian; 3.84 µM in the experiment with NCI-H460 lung; 3.37 µM in the experiment on OVCAR-8 ovarian; 2.39 µM in the experiment with RXF 393 renal; 2.12 µM with ACHN renal. Moreover, the TGI came out at 11.8 µM in the experiment with HS 578T breast, 3.33 µM in the experiment with KM12 colon and 3.14 µM in the experiment on MALME-3M melanoma.

In the case of `CCCNCc1cc(C)cc2c1nc(N1CCNCC1)n2Cc1cc(C)c(F)c(C)c1`, the GI50 in the experiment on OVCAR-3 ovarian was 3.71 µM; in the experiment on IGROV1 ovarian it was 10.3 µM; in the experiment on NCI-H460 lung, 1.93 µM; in the experiment with OVCAR-8 ovarian it was 3.9 µM; with ACHN renal it was 4.37 µM; in the experiment with SNB-75 CNS, 12.1 µM. The GI50 was 2.56 µM in the experiment on HS 578T breast, 3.08 µM in the experiment on KM12 colon and 1.86 µM in the experiment on MALME-3M melanoma. Besides, the TGI with OVCAR-3 ovarian turned out to be 13.5 µM; in the experiment with IGROV1 ovarian it was 25.1 µM; in the experiment on NCI-H460 lung it was 4.03 µM; in the experiment with OVCAR-8 ovarian, 13.8 µM; in the experiment with ACHN renal, 15.5 µM; with SNB-75 CNS, 26.4 µM. In addition, the TGI worked out at 11.6 µM in the experiment on HS 578T breast, 11.7 µM in the experiment with KM12 colon and 3.53 µM in the experiment with MALME-3M melanoma.

`CN(C)CCNC(=O)Nc1c(C#N)[n+]([O-])c2cc(Cl)c(Cl)cc2[n+]1[O-]`: the GI50 with OVCAR-3 ovarian was 21.4 µM; in the experiment with NCI-H460 lung, 21.1 µM; in the experiment with OVCAR-8 ovarian it was 21.4 µM; in the experiment with RXF 393 renal, 47.9 µM; in the experiment with ACHN renal, 32.9 µM; in the experiment with SNB-75 CNS, 14.7 µM. Also, the figures for the GI50 with HS 578T breast, in the experiment on KM12 colon and in the experiment with MALME-3M melanoma were 33.4 µM, 13.3 µM and 21.6 µM, respectively. Further, the TGI in the experiment on OVCAR-3 ovarian is 57 µM; in the experiment on NCI-H460 lung, over 100 µM; in the experiment with OVCAR-8 ovarian it was over 100 µM; in the experiment on RXF 393 renal, over 100 µM; in the experiment on ACHN renal, over 100 µM; in the experiment on SNB-75 CNS, over 100 µM. Besides, the values for the TGI in the experiment on HS 578T breast, with KM12 colon and with MALME-3M melanoma were over 100 µM, 43.1 µM and over 100 µM, respectively.

On to `O=C(N/N=C/c1ccc(Cl)cc1Cl)c1ccccc1Nc1cccc(C(F)(F)F)c1`, for which the GI50 in the experiment with OVCAR-3 ovarian was 2.85 µM; with NCI-H460 lung, 6.98 µM; with OVCAR-8 ovarian, 2.47 µM; in the experiment with RXF 393 renal, 2.24 µM; with ACHN renal it was 3.77 µM; in the experiment with SNB-75 CNS, 2.55 µM. In addition, the figures for the GI50 in the experiment with HS 578T breast, with KM12 colon and in the experiment with MALME-3M melanoma were 4.1 µM, 9.07 µM and 2.62 µM, respectively. Moreover, the TGI with OVCAR-3 ovarian was 8.03 µM; with NCI-H460 lung it was over 100 µM; in the experiment on OVCAR-8 ovarian, 5.99 µM; with RXF 393 renal it was 4.41 µM; with ACHN renal, 16.5 µM; in the experiment on SNB-75 CNS, 9.71 µM. Moreover, the total growth inhibition concentration (TGI) with HS 578T breast is 44.5 µM; in the experiment with KM12 colon it was over 100 µM; in the experiment on MALME-3M melanoma it was 10.5 µM.

For `Cc1ccc(-c2nc(C(Cl)Cl)n3nc(-c4ccccc4)cc3n2)cc1`, the GI50 in the experiment on OVCAR-3 ovarian is 0.222 µM; with IGROV1 ovarian, 0.711 µM; in the experiment with NCI-H460 lung, 0.273 µM; in the experiment on OVCAR-8 ovarian, 0.512 µM; in the experiment on RXF 393 renal, 0.298 µM; with ACHN renal it was 0.302 µM. Also, the GI50 is over 100 µM in the experiment with SNB-75 CNS, 1.2 µM with HS 578T breast and over 100 µM in the experiment on MALME-3M melanoma. Also, the TGI with OVCAR-3 ovarian is 0.586 µM; in the experiment with IGROV1 ovarian, over 100 µM; with NCI-H460 lung, 1.05 µM; with OVCAR-8 ovarian it was over 100 µM; with RXF 393 renal, 0.896 µM; in the experiment on ACHN renal it was 0.93 µM. For the same molecule, the TGI with SNB-75 CNS was over 100 µM; with HS 578T breast it was 3.96 µM; in the experiment on MALME-3M melanoma it was over 100 µM.

As to `Cc1ccc(C(=O)CC(Sc2cccc(Cl)c2Cl)c2ccc(Cl)cc2)cc1C` (stereo not drawn), the GI50 was 15.4 µM in the experiment with OVCAR-3 ovarian; 19.7 µM in the experiment with IGROV1 ovarian; 19.1 µM in the experiment with NCI-H460 lung; 24.6 µM with OVCAR-8 ovarian; 25.8 µM in the experiment on RXF 393 renal; 27.9 µM in the experiment on HS 578T breast. Besides, the GI50 in the experiment with KM12 colon is 15.4 µM; in the experiment on MALME-3M melanoma, 15.5 µM. Further, the TGI in the experiment with OVCAR-3 ovarian worked out at 31.1 µM; in the experiment with IGROV1 ovarian it was 41.2 µM; in the experiment on NCI-H460 lung, 42.1 µM; in the experiment on OVCAR-8 ovarian, 74 µM; with RXF 393 renal it was 56.9 µM; in the experiment with HS 578T breast it was 75.2 µM. Also, the results for the TGI with KM12 colon and in the experiment on MALME-3M melanoma were 34.1 µM and 39.9 µM, respectively.

Regarding `Cc1ncc(NC(=O)c2ccc(CN3CCN(C)CC3)c(C(F)(F)F)c2)cc1Nc1nccc(-c2cccnc2)n1`, the GI50 is 10.7 µM with IGROV1 ovarian; 17.4 µM in the experiment on NCI-H460 lung; 16.8 µM with OVCAR-8 ovarian; 11.1 µM in the experiment with RXF 393 renal; 14.2 µM with ACHN renal; 15.2 µM in the experiment with SNB-75 CNS. Moreover, the values for the GI50 in the experiment on HS 578T breast, in the experiment with KM12 colon and in the experiment with MALME-3M melanoma were 17.7 µM, 15.3 µM and 0.582 µM, respectively. Besides, the TGI in the experiment on IGROV1 ovarian was 24.4 µM; in the experiment on NCI-H460 lung, 33 µM; with OVCAR-8 ovarian, 31.6 µM; with RXF 393 renal it was 23.8 µM; with ACHN renal, 27.3 µM; in the experiment on SNB-75 CNS, 28.8 µM. Moreover, the TGI with HS 578T breast is 45.7 µM; in the experiment on KM12 colon, 30.2 µM; in the experiment with MALME-3M melanoma it was 14.4 µM.

For `Nc1ccc(SC23CC4CC(CC(C4)C2)C3)cc1`, the TGI with OVCAR-3 ovarian, with IGROV1 ovarian, in the experiment with NCI-H460 lung, in the experiment with OVCAR-8 ovarian, in the experiment with RXF 393 renal and in the experiment on ACHN renal was over 100 µM in each case. The TGI in the experiment on HS 578T breast, in the experiment with KM12 colon and with MALME-3M melanoma was over 100 µM in each case.

The TGI is the concentration giving total growth inhibition. The GI50 is the concentration that inhibits growth by half.
